# Results reported in PubChem BioAssay (NCI).
#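 Step 1: Grow cells in 96-well plates. Step 2: Expose to compound for 48 hours at 5 concentrations. Step 3: Interpolate endpoints linearly; if unreached, use highest concentration. At the TGI there is no net growth.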
# Assays:
# Assay in all cases: NCI anticancer screen, dose series, 48 h
# [1] = tested on: A549 NSCLC
# [2] = tested on: NCI-H460 lung
# [3] = tested on: K-562 leukemia
# [4] = tested on: HOP-62 NSCLC
# [5] = tested on: RXF 393 renal
# [6] = tested on: HOP-92 NSCLC
# [7] = tested on: SNB-19 CNS
# [8] = tested on: SNB-75 CNS
# [9] = tested on: ACHN renal
# [10] = tested on: LOX IMVI melanoma
# [11] = tested on: MOLT-4 leukemia
# [12] = tested on: NCI-H23 lung
# [13] = tested on: RPMI-8226 leukemia
# [14] = tested on: CAKI-1 renal
# [15] = tested on: A498 renal
# [16] = tested on: TK-10 renal
# [17] = tested on: MDA-MB-231 breast
# [18] = tested on: DU-145 prostate
SMILES,TGI [1] [µM],TGI [2] [µM],TGI [3] [µM],TGI [4] [µM],TGI [5] [µM],TGI [6] [µM],TGI [7] [µM],TGI [8] [µM],TGI [9] [µM],TGI [10] [µM],TGI [11] [µM],TGI [12] [µM],TGI [13] [µM],TGI [14] [µM],TGI [15] [µM],TGI [16] [µM],TGI [17] [µM],TGI [18] [µM]
NC1=NNC2(C(=O)N1)c1ccccc1-c1ccccc12,> 10,> 10,> 10,> 10,> 10,> 10,> 10,> 10,> 10,> 10,> 10,> 10,> 10,> 10,> 10,> 10,,
COC(=O)C1=C(C(=O)OC)C2C(C)=CC(C)=CN2C(C#N)=C(SC)S1 (stereo not drawn),> 100,> 100,55.3,> 100,30.6,,> 100,> 100,60.5,35.4,77.3,36.4,64.1,41.5,,69.8,,
CCOC(=O)NC(C(=O)OCC)C(F)(F)F (stereo not drawn),> 100,> 100,> 100,> 100,,> 100,> 100,> 100,> 100,> 100,> 100,> 100,> 100,> 100,,> 100,> 100,
c1cc(CSP234N5CCN2CCN3CCN4CC5)ccc1CSP123N4CCN1CCN2CCN3CC4,> 100,> 100,> 100,> 100,,> 100,> 100,> 100,> 100,> 100,> 100,> 100,84.6,> 100,,> 100,> 100,> 100
CCN1CN(c2ccccc2)C2(CCN(CCCSc3ccc(F)cc3)CC2)C1=O,21.2,,37.1,12.6,25.7,,24.3,30.1,24.1,31.5,23.7,24.1,46.8,35.7,,26.3,29,17.9
COc1ccc(N(C)Sc2ccccc2)cc1,> 100,> 100,> 100,> 100,53.4,> 100,> 100,,,> 100,75.6,> 100,> 100,,,> 100,,
COC(=O)[C@@H](O)[C@]1(C(=O)OC)C2O[C@@H](OC)[C@@H]1CCCCCC[C@H]2O,> 100,> 100,> 100,> 100,> 100,,> 100,> 100,> 100,> 100,> 100,> 100,> 100,> 100,,> 100,> 100,
